Activity calls are given as the source filed them. No cut-off for these calls is given here.
Assays:
HeLa [1] = experiment: Cytotoxicity against human HeLa cells assessed as decrease in cell viability after 48 hrs by MTT assay; format: functional, cell-based
HepG2 = experiment: Cytotoxicity against human HepG2 cells assessed as decrease in cell viability by MTT assay; format: functional, cell-based
MCF7 = experiment: Cytotoxicity against human MCF7 cells assessed as decrease in cell viability by MTT assay; format: functional, cell-based
HeLa [2] = experiment: Cytotoxicity against human HeLa cells assessed as decrease in cell viability at 10 uM after 48 hrs by MTT assay relative to control; format: functional
HeLa [3] = experiment: Cytotoxicity against human HeLa cells assessed as decrease in cell viability at 20 uM after 48 hrs by MTT assay relative to control; format: functional
HeLa [4] = experiment: Cell cycle arrest in human HeLa cells assessed as accumulation at G1 phase at 10 uM after 48 hrs by propidium iodide staining-based flow cytometric analysis (reference value: 66.35%); format: functional
HeLa [5] = experiment: Cell cycle arrest in human HeLa cells assessed as accumulation at G2 phase at 10 uM after 48 hrs by propidium iodide staining-based flow cytometric analysis (reference value: 4.45%); format: functional
HeLa [6] = experiment: Cell cycle arrest in human HeLa cells assessed as accumulation at S phase at 10 uM after 48 hrs by propidium iodide staining-based flow cytometric analysis (reference value: 29.20%); format: functional
HeLa [7] = experiment: Cell cycle arrest in human HeLa cells assessed as accumulation at G1 phase at 20 uM after 48 hrs by propidium iodide staining-based flow cytometric analysis (reference value: 66.35%); format: functional
HeLa [8] = experiment: Cell cycle arrest in human HeLa cells assessed as accumulation at G2 phase at 20 uM after 48 hrs by propidium iodide staining-based flow cytometric analysis (reference value: 4.45%); format: functional
HeLa [9] = experiment: Cell cycle arrest in human HeLa cells assessed as accumulation at S phase at 20 uM after 48 hrs by propidium iodide staining-based flow cytometric analysis (reference value: 29.20%); format: functional
HeLa [10] = experiment: Cell cycle arrest in human HeLa cells assessed as accumulation at G1 phase at 30 uM after 48 hrs by propidium iodide staining-based flow cytometric analysis (reference value: 66.35%); format: functional
HeLa [11] = experiment: Induction of apoptosis in human HeLa cells assessed as early apoptotic cells at 10 uM after 24 hrs by annexin V/FITC-propidium iodide staining-based flow cytometric method (reference value: 1.76%); format: functional
HeLa [12] = experiment: Induction of apoptosis in human HeLa cells assessed as late apoptotic cells at 10 uM after 24 hrs by annexin V/FITC-propidium iodide staining-based flow cytometric method (reference value: 0.987%); format: functional
HeLa [13] = experiment: Induction of apoptosis in human HeLa cells assessed as necrotic cells at 10 uM after 24 hrs by annexin V/FITC-propidium iodide staining-based flow cytometric method (reference value: 1.81%); format: functional
HeLa [14] = experiment: Induction of apoptosis in human HeLa cells assessed as viable cells at 10 uM after 24 hrs by annexin V/FITC-propidium iodide staining-based flow cytometric method (reference value: 95.4%); format: functional; conditions: read-out: Activity
HeLa [15] = experiment: Induction of apoptosis in human HeLa cells assessed as early apoptotic cells at 20 uM after 24 hrs by annexin V/FITC-propidium iodide staining-based flow cytometric method (reference value: 1.76%); format: functional
HeLa [16] = experiment: Induction of apoptosis in human HeLa cells assessed as late apoptotic cells at 20 uM after 24 hrs by annexin V/FITC-propidium iodide staining-based flow cytometric method (reference value: 0.987%); format: functional
HeLa [17] = experiment: Induction of apoptosis in human HeLa cells assessed as necrotic cells at 20 uM after 24 hrs by annexin V/FITC-propidium iodide staining-based flow cytometric method (reference value: 1.81%); format: functional
HeLa [18] = experiment: Induction of apoptosis in human HeLa cells assessed as viable cells at 20 uM after 24 hrs by annexin V/FITC-propidium iodide staining-based flow cytometric method (reference value: 95.4%); format: functional; conditions: read-out: Activity
HeLa [19] = experiment: Induction of apoptosis in human HeLa cells assessed as early apoptotic cells at 30 uM after 24 hrs by annexin V/FITC-propidium iodide staining-based flow cytometric method (reference value: 1.76%); format: functional
HeLa [20] = experiment: Induction of apoptosis in human HeLa cells assessed as late apoptotic cells at 30 uM after 24 hrs by annexin V/FITC-propidium iodide staining-based flow cytometric method (reference value: 0.987%); format: functional
HeLa [21] = experiment: Induction of apoptosis in human HeLa cells assessed as necrotic cells at 30 uM after 24 hrs by annexin V/FITC-propidium iodide staining-based flow cytometric method (reference value: 1.81%); format: functional
HeLa [22] = experiment: Induction of apoptosis in human HeLa cells assessed as viable cells at 30 uM after 24 hrs by annexin V/FITC-propidium iodide staining-based flow cytometric method (reference value: 95.4%); format: functional; conditions: read-out: Activity
HeLa [23] = experiment: Cell cycle arrest in human HeLa cells assessed as accumulation at G2 phase at 30 uM after 48 hrs by propidium iodide staining-based flow cytometric analysis (reference value: 4.45%); format: functional
HeLa [24] = experiment: Cell cycle arrest in human HeLa cells assessed as accumulation at S phase at 30 uM after 48 hrs by propidium iodide staining-based flow cytometric analysis (reference value: 29.20%); format: functional
HeLa [25] = experiment: Upregulation of Bak expression in human HeLa cells at 10 to 30 uM after 24 hrs by Western blot method; format: functional, cell-based
HeLa [26] = experiment: Upregulation of Bim expression in human HeLa cells at 10 to 30 uM after 24 hrs by Western blot method; format: functional, cell-based
HeLa [27] = experiment: Downregulation of Bcl-2 expression in human HeLa cells at 10 to 30 uM after 24 hrs by Western blot method; format: functional, cell-based
HeLa [28] = experiment: Downregulation of Bcl-xL expression in human HeLa cells at 10 to 30 uM after 24 hrs by Western blot method; format: functional, cell-based
P388 = experiment: Cytotoxicity against mouse P388 cells assessed as growth inhibition; format: functional, cell-based

## Oc1ccc(-c2c(-c3ccc4ccccc4c3)oc3cc(O)ccc23)c(O)c1
HeLa [1]
  IC50: 21.2 µM

## COc1ccc(-c2oc3cc(O)ccc3c2-c2ccc(O)cc2O)cc1
HeLa [1]
  IC50: 13.7 µM

## COc1ccc(/C=C/c2cc(OC)c3c(-c4cc(OC)cc(OC)c4)c(-c4ccc(OC)cc4)oc3c2)cc1
HepG2
  IC50: 0.24 µM
MCF7
  IC50: 0.85 µM

## Oc1ccc(-c2c(-c3ccc(Br)cc3)oc3cc(O)ccc23)c(O)c1
HeLa [1]
  IC50: 36.7 µM

## COc1cccc(-c2oc3cc(O)ccc3c2-c2ccc(O)cc2O)c1
HeLa [1]
  IC50: 29.9 µM

## Oc1ccc(-c2c(-c3cccnc3)oc3cc(O)ccc23)c(O)c1
HeLa [1]
  IC50: 19.9 µM

## COc1ccc(-c2c(-c3ccccc3)oc3cc(OC)ccc23)c(O)c1
HeLa [1]
  IC50: 28.9 µM

## Cc1cccc(-c2oc3cc(O)ccc3c2-c2ccc(O)cc2O)c1
HeLa [1]
  IC50: 13.4 µM
HeLa [2]
  Activity: 30%
HeLa [3]
  Activity: 65%
HeLa [4]
  Activity: 70.88%
HeLa [5]
  Activity: 7.56%
HeLa [6]
  Activity: 21.56%
HeLa [7]
  Activity: 63.54%
HeLa [8]
  Activity: 6.31%
HeLa [9]
  Activity: 30.15%
HeLa [10]
  Activity: 61.08%
HeLa [11]
  Activity: 8.05%
HeLa [12]
  Activity: 7.26%
HeLa [13]
  Activity: 1.97%
HeLa [14]
  viability at 10 µM: 82.7%
HeLa [15]
  Activity: 8.57%
HeLa [16]
  Activity: 18.9%
HeLa [17]
  Activity: 3.08%
HeLa [18]
  viability at 20 µM: 69.5%
HeLa [19]
  Activity: 10.3%
HeLa [20]
  Activity: 36.2%
HeLa [21]
  Activity: 11.5%
HeLa [22]
  viability at 30 µM: 42.1%
HeLa [23]
  Activity: 7.1%
HeLa [24]
  Activity: 31.82%
HeLa [25]
  Activity: Active
HeLa [26]
  Activity: Active
HeLa [27]
  Activity: Active
HeLa [28]
  Activity: Active

## Oc1ccc(-c2c(-c3ccc(Cl)cc3)oc3cc(O)ccc23)c(O)c1
HeLa [1]
  IC50: 32.7 µM

## Oc1ccc(-c2c(-c3ccc(F)cc3)oc3cc(O)ccc23)c(O)c1
HeLa [1]
  IC50: 28.3 µM

## Oc1ccc(-c2c(-c3ccccc3)oc3cc(O)ccc23)c(O)c1
HeLa [1]
  IC50: 29.7 µM

## Oc1ccc(-c2c(-c3ccccc3Br)oc3cc(O)ccc23)c(O)c1
HeLa [1]
  IC50: > 100 µM

## CC[C@@]1(O)C(=O)OCc2c1cc1n(c2=O)Cc2cc3cc(O)ccc3nc2-1 [HYDROXYCAMPTOTHECIN]
HeLa [1]
  IC50: 10 µM

## Cc1ccccc1-c1oc2cc(O)ccc2c1-c1ccc(O)cc1O
HeLa [1]
  IC50: 47.5 µM

## Cc1ccc(-c2oc3cc(O)ccc3c2-c2ccc(O)cc2O)cc1
HeLa [1]
  IC50: 29.2 µM

## Oc1ccc(-c2c(-c3cccc(Br)c3)oc3cc(O)ccc23)c(O)c1
HeLa [1]
  IC50: 26.9 µM

## Oc1ccc(-c2oc3cc(O)ccc3c2-c2ccc(O)cc2O)cc1
HeLa [1]
  IC50: 32 µM

## O=C1c2c(O)cc(O)cc2-c2c(-c3ccc(O)cc3)oc3cc(O)cc1c23
P388
  IC50: 13.2 µM

## COc1cccc(-c2c(-c3ccccc3)oc3c(OC)cccc23)c1O
HeLa [1]
  IC50: 57.8 µM

— ChEMBL document CHEMBL4007501, “Synthesis and antitumor evaluation of 2,3-diarylbenzofuran derivatives on HeLa cells” (Bioorg Med Chem Lett, 2017)
